Structures are written as SMILES.

This experiment relates to hPBMCs (Human Peripheral Blood Mononuclear Cells). Description: Induction of interferon-α in hPBMCs in vitro. It counts as cell-based. The essentials: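 Peripheral blood mononuclear cells from healthy human donors were dispensed into replicate culture wells at 1.0-7.5×10^6 cells per well. They were exposed to test compound for 24 hours at 37° C. in humidified 5% CO2, with untreated wells as controls. Secreted interferon-α was quantified with a multisubtype ELISA or as IFNα2a in a luminex panel. MEC was defined as the lowest concentration giving a significant rise above baseline, generally at least 80 pg/ml. IFNmax was the highest IFN level seen at any tested concentration.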

For the compound `CC[C@H](O)[C@@H]1C[C@@H](O)[C@H](n2c(=O)sc3c(=O)[nH]c(N)nc32)O1` [Compound A, 5-amino-3-((2R,3R,5S)-3-hydroxy-5-((S)-1-hydroxypropyl)tetrahydrofuran-2-yl)thiazolo[4,5-d]pyrimidine-2,7(3H,6H)-dione, reference compound], the “Donor 1 MEC” value (Donor 1, interferon-α production) is at most 3.125 µM. Besides, where the note is “Donor 1, maximum IFN at any concentration of the evaluated range”, the “Donor 1 IFNmax” value came to 1061 pg/mL. Also, for the setting “Donor 2, interferon-α production”, the “Donor 2 MEC” value was at most 3.125 µM. Moreover, the “Donor 2 IFNmax” value (Donor 2, maximum IFN at any concentration of the evaluated range) was 481 pg/mL. For the same compound, where the note is “Donor 3, interferon-α production”, the “Donor 3 MEC” value is at most 3.125 µM. Moreover, under “Donor 3, maximum IFN at any concentration of the evaluated range”, the “Donor 3 IFNmax” value was 2243 pg/mL. The Emax (Homo sapiens, PBMC, 24 h, peak IFNα2a as percentage of peak response of standard 2-Amino-7-(cyclopropylmethyl)-9-B-D-xylofuranosyl-7,9-dihydro-1H-purine-6,8-dione, averaged across donors, read-out: IFNrmax, Relative Maximal IFNα2a Production (%)) was 103%. Moreover, the minimal effective concentration (Homo sapiens, PBMC, minimal effective concentration for interferon-α production (generally at least 80 pg/ml above baseline), geometric mean across at least three donors, 24 hours, read-out: Weighted MEC) is at most 3.1 µM.

The values are drawn from patent US12187759B2, “TLR7 agonists” (Primmune Therapeutics, Inc., priority 2019, dated 2025).
